Converted amounts (≈) assume the structure as drawn.
test system: Micrococcus luteus; test: MIC liquid tube assay (antibiotic activity); type: cell-based; details: Micrococcus luteus; liquid tube assay in nutrient broth, 37° C., growth observed after 24 and 48 hours; MIC = last concentration where growth inhibited; read-out: MIC
Procedure: Micrococcus luteus from stock was streaked on a nutrient agar plate to confirm colony morpbiology, colour and purity. After 24 hours incubation at 37° C. an isolated colony is picked and inoculated into 10 ml of nutrient broth. This is incubated overnight at 37° C. and is subsequently used as the inoculum. 10 mg of each of the test compounds is weighed and dissolved in 10 ml of […] methanol in sterile 20 ml universal containers. This is then diluted with ringers buffer solution to give a concentration of 1 mg/ml. Quantitation of activity is determined using an MIC ([…]) liquid tube assay. For each test substance the following concentrations are set up: 10 μg/ml, 5 μg/ml, 1 μg/ml, 0.5 μg/ml, 0.1 μg/ml, 0.05 μg/ml and 0.01 μg/ml. Each contained nutrient broth and 0.1 ml of overnight culture of Micrococcus luteus. The tubes were incubated at 37° C. and observed for growth after 24 hours and 48 hours. Growth is assessed by dense turbidity, optical density at 660 nm using a spectrophotometer or clarity. The MIC is the last concentration where growth inhibited.

Row | Compound | MIC
1 | CCC(=O)O[C@H]1[C@H](O[C@@H]2[C@@H](C)[C@H](O[C@H]3C[C@@](C)(OC)[C@@H](O)[C@H](C)O3)[C@@H](C)C(=O)O[C@H](CC)[C@@](C)(O)[C@H](O)[C@@H](C)C(=O)[C@H](C)C[C@@]2(C)O)O[C@H](C)C[C@@H]1N(C)C [Erythromycin-propionate, Erythromycin Propionate, reference compound] | 0.01 to 0.05 µg/mL (≈ 0.0127 to 0.0633 µM)
2 | CC[C@H]1OC(=O)[C@H](C)[C@@H](O[C@H]2C[C@@](C)(OC)[C@@H](O)[C@H](C)O2)[C@H](C)[C@@H](O[C@@H]2O[C@H](C)C[C@H](N(C)C)[C@H]2O)[C@](C)(OC)C[C@@H](C)C(=O)[C@H](C)[C@@H](O)[C@]1(C)O [Clarithromycin] | ≤ 0.01 µg/mL

same assay, conditions: liquid tube assay in nutrient broth, 37° C., growth observed after 24 and 48 hours; MIC = last concentration where growth inhibited

Row | Compound | MIC
3 | Clarithromycin-N-Acetylcysteinate-[1:4]-Salt [Clarithromycin-N-acetylcysteinate [1:4]] | 0.01 to 0.05 µg/mL
4 | CC(=O)N[C@@H](CS)C(=O)O.CC[C@H]1OC(=O)[C@H](C)[C@@H](O[C@H]2C[C@@](C)(OC)[C@@H](O)[C@H](C)O2)[C@H](C)[C@@H](O[C@@H]2O[C@H](C)C[C@H](N(C)C)[C@H]2O)[C@](C)(OC)C[C@@H](C)C(=O)[C@H](C)[C@@H](O)[C@]1(C)O [Clarithromycin-N-acetylcysteinate [1:1], Clarithromycin-N-Acetylcysteinate-[1:1]-Salt] | ≦0.01 μg/ml
5 | Erythromycin Propionate-N-Acetylcysteine [1:1.8]-Adduct [Erythromycin-N-acetylcysteinate [1:1.8]] | ≦0.01 μg/ml
6 | Erythromycin Propionate-N-Acetylcysteine-[1:1]-Salt [Erythromycin-N-acetylcysteinate [1:1]] | 0.01 to 0.05 µg/mL
7 | Erythromycin Propionate-N-Acetylcysteine [1:4]-Adduct [Erythromycin-N-acetylcysteinate [1:4]] | 0.05 to 0.1 µg/mL
